Assay results: patent US20220282217A1, “COMPOSITIONS AND METHODS FOR PREPARING T CELL COMPOSITIONS AND USES THEREOF” (priority 2019, published 2022)
Where a SMILES comes first, the peptide text is derived from it.

What follows are compounds tested against T1, HLA-A02.01 (Homo sapiens, UniProt P04439, D140Y/D185E/D98H/E176V/E277Q/G131W/G231S/I119V/I121R/I166T/I218V/N151K/N90K/P208A/P217A/Q86G/Q94H/R138H/R169H) (assay: Class I MHC peptide binding stability (pMHC-I dissociation, 125I-labeled light chain)). Conditions: allele A02.01.
T1 construct: made in house; host or cells: E. coli

Row | Structure (SMILES) | Stability (T1/2 (h)) [h]
1 | CC[C@H](C)[C@H](NC(=O)[C@H](Cc1ccc(O)cc1)NC(=O)[C@H](CCC(=O)O)NC(=O)CNC(=O)[C@H](CO)NC(=O)[C@@H](N)Cc1ccccc1)C(=O)N1CCC[C@H]1C(=O)N[C@H](C(=O)N[C@H](C(=O)O)C(C)C)[C@@H](C)O (H-FSGEYIPTV-OH; N-terminus and C-terminus assumed) | 6.8
2 | CC(C)C[C@H](NC(=O)CN)C(=O)N[C@H](C(=O)N[C@@H](CC(=O)O)C(=O)N[C@@H](CCC(=O)O)C(=O)N[C@@H](CCC(N)=O)C(=O)N[C@@H](CCC(N)=O)C(=O)N[C@@H](CCC(=O)O)C(=O)N[C@H](C(=O)O)C(C)C)C(C)C | 7.4

The compounds below were run against HLA-A02.01 (Homo sapiens, UniProt P04439, D140Y/D185E/D98H/E176V/E277Q/G131W/G231S/I119V/I121R/I166T/I218V/L300P/L318F/N151K/N90K/P208A/P217A/Q86G/Q94H/R138H/R169H/T345S) (assay: Class I MHC peptide binding affinity (displacement of radiolabeled reference peptide)). Conditions: allele A02.01; read-out: Observed Affinity (IC50; (nM)).
Method in brief: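 Read-out: radioactivity of reference peptide retained on MHCI, separated from free label by gel-filtration size exclusion. Competing peptides are titrated against the preformed complexes and incubated two days beforehand.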

Row | Structure (SMILES) | IC50 [nM]
3 | CC[C@H](C)[C@H](NC(=O)[C@H](Cc1ccc(O)cc1)NC(=O)[C@H](CCC(=O)O)NC(=O)CNC(=O)[C@H](CO)NC(=O)[C@@H](N)Cc1ccccc1)C(=O)N1CCC[C@H]1C(=O)N[C@H](C(=O)N[C@H](C(=O)O)C(C)C)[C@@H](C)O (H-FSGEYIPTV-OH; N-terminus and C-terminus assumed) | 3
4 | CC(C)C[C@H](NC(=O)CN)C(=O)N[C@H](C(=O)N[C@@H](CC(=O)O)C(=O)N[C@@H](CCC(=O)O)C(=O)N[C@@H](CCC(N)=O)C(=O)N[C@@H](CCC(N)=O)C(=O)N[C@@H](CCC(=O)O)C(=O)N[C@H](C(=O)O)C(C)C)C(C)C | 44

What follows are compounds tested against HLA-A03.01 (Homo sapiens, UniProt P04439) in the same assay as above. Conditions: allele A03.01; read-out: Observed Affinity (IC50; (nM)).

Row | Structure (SMILES) | IC50 [nM]
5 | CC[C@H](C)[C@H](NC(=O)[C@H](C)NC(=O)[C@H](CS)NC(=O)[C@@H](NC(=O)[C@H](Cc1ccc(O)cc1)NC(=O)[C@@H](N)[C@@H](C)O)[C@@H](C)O)C(=O)N[C@H](C(=O)N[C@H](C(=O)N[C@H](C(=O)N[C@@H](CCCCN)C(=O)O)C(C)C)[C@@H](C)O)[C@@H](C)O (H-TYTCAITTVK-OH; N-terminus and C-terminus assumed) | 2360
6 | CSCC[C@H](NC(=O)[C@H](C)N)C(=O)N[C@H](C(=O)N[C@H](C(=O)N[C@@H](CO)C(=O)N[C@@H](CO)C(=O)N[C@@H](CO)C(=O)N[C@@H](CCC(N)=O)C(=O)N[C@@H](CCCCN)C(=O)N[C@@H](CC(N)=O)C(=O)O)[C@@H](C)O)[C@@H](C)O (H-AMTTSSSQKN-OH; N-terminus and C-terminus assumed) | 2340
7 | CSCC[C@H](NC(=O)[C@@H](N)CC(C)C)C(=O)N[C@@H](CC(C)C)C(=O)N[C@@H](CC(C)C)C(=O)N[C@@H](CCCNC(=N)N)C(=O)N[C@@H](CC(C)C)C(=O)N[C@@H](CC(N)=O)C(=O)N[C@@H](CC(C)C)C(=O)N[C@@H](CCCNC(=N)N)C(=O)N[C@@H](CCCCN)C(=O)O (H-LMLLRLNLRK-OH; N-terminus and C-terminus assumed) | 6
8 | CC[C@H](C)[C@H](NC(=O)[C@H](CS)NC(=O)[C@H](Cc1ccccc1)NC(=O)[C@H](CC(N)=O)NC(=O)[C@H](C)NC(=O)[C@H](CC(C)C)NC(=O)[C@@H](N)CS)C(=O)N[C@@H](Cc1ccccc1)C(=O)N[C@@H](CC(N)=O)C(=O)N[C@@H](CCCNC(=N)N)C(=O)O | 222
9 | CSCC[C@H](N)C(=O)N[C@@H](CC(C)C)C(=O)N[C@@H](CC(C)C)C(=O)N[C@@H](CCCNC(=N)N)C(=O)N[C@@H](CC(C)C)C(=O)N[C@@H](CC(N)=O)C(=O)N[C@@H](CC(C)C)C(=O)N[C@@H](CCCNC(=N)N)C(=O)N[C@@H](CCCCN)C(=O)O (H-MLLRLNLRK-OH; N-terminus and C-terminus assumed) | 1.3
10 | CC(C)C[C@H](N)C(=O)N[C@H](C(=O)N[C@@H](CO)C(=O)N[C@@H](CO)C(=O)N[C@@H](CO)C(=O)N[C@@H](CCCNC(=N)N)C(=O)N[C@@H](CCC(=O)O)C(=O)N[C@@H](Cc1c[nH]c2ccccc12)C(=O)N[C@@H](CCCCN)C(=O)O)[C@@H](C)O (H-LTSSSREWK-OH; N-terminus and C-terminus assumed) | 118
11 | C[C@@H](O)[C@H](NC(=O)[C@H](CCC(=O)O)NC(=O)[C@H](CCCCN)NC(=O)[C@H](CCCCN)NC(=O)[C@H](CCCCN)NC(=O)[C@H](CO)NC(=O)[C@@H](N)CCCCN)C(=O)N[C@@H](Cc1ccccc1)C(=O)N[C@@H](CCCCN)C(=O)N[C@@H](CCCCN)C(=O)O (H-KSKKKETFKK-OH; N-terminus and C-terminus assumed) | 39.6
12 | CC(C)[C@H](NC(=O)[C@H](CCCNC(=N)N)NC(=O)[C@@H](N)CCCCN)C(=O)N[C@@H](CC(N)=O)C(=O)N[C@H](C(=O)N[C@@H](C)C(=O)N[C@@H](Cc1c[nH]c2ccccc12)C(=O)N[C@@H](CCCCN)C(=O)N[C@H](C(=O)N[C@@H](CCCCN)C(=O)O)[C@@H](C)O)[C@@H](C)O (H-KRVNTAWKTK-OH; N-terminus and C-terminus assumed) | 332
13 | CC(C)C[C@H](NC(=O)[C@H](CCC(N)=O)NC(=O)[C@H](CC(C)C)NC(=O)[C@H](Cc1c[nH]cn1)NC(=O)[C@H](CC(N)=O)NC(=O)[C@H](CCC(N)=O)NC(=O)[C@H](CCCNC(=N)N)NC(=O)[C@H](CO)NC(=O)[C@@H](N)CCCCN)C(=O)N[C@@H](CCCCN)C(=O)O (H-KSRQNHLQLK-OH; N-terminus and C-terminus assumed) | 4.7
14 | CC(C)C[C@H](NC(=O)[C@@H](NC(=O)[C@H](CO)NC(=O)[C@H](CO)NC(=O)[C@H](CC(C)C)NC(=O)[C@@H](N)CCCNC(=N)N)C(C)C)C(=O)N[C@@H](CCC(N)=O)C(=O)N[C@@H](CCCNC(=N)N)C(=O)N[C@@H](Cc1ccccc1)C(=O)N[C@@H](CCCNC(=N)N)C(=O)O | 12.5
15 | CC(C)C[C@H](NC(=O)[C@@H](N)CO)C(=O)N[C@@H](CCC(N)=O)C(=O)N1CCC[C@H]1C(=O)N1CCC[C@H]1C(=O)N1CCC[C@H]1C(=O)N1CCC[C@H]1C(=O)NCC(=O)N[C@@H](Cc1ccccc1)C(=O)N[C@@H](CCCCN)C(=O)O (H-SLQPPPPGFK-OH; N-terminus and C-terminus assumed) | 19
16 | CC(C)C[C@H](NC(=O)[C@@H](N)[C@@H](C)O)C(=O)N[C@@H](CC(N)=O)C(=O)N[C@@H](CO)C(=O)N1CCC[C@H]1C(=O)N1CCC[C@H]1C(=O)N[C@@H](CC(C)C)C(=O)N[C@@H](CCCCN)C(=O)N[C@@H](CCCCN)C(=O)O (H-TLNSPPLKK-OH; N-terminus and C-terminus assumed) | 5.4
17 | CSCC[C@H](NC(=O)[C@H](CC(C)C)NC(=O)[C@@H]1CCCN1C(=O)[C@@H](NC(=O)[C@H](CCCCN)NC(=O)[C@H](CCSC)NC(=O)[C@@H](N)CCCNC(=N)N)C(C)C)C(=O)N[C@@H](CCCCN)C(=O)O (H-RMKVPLMK-OH; N-terminus and C-terminus assumed) | 33
18 | CC(C)C[C@H](NC(=O)[C@@H](NC(=O)[C@@H](N)[C@@H](C)O)[C@@H](C)O)C(=O)N[C@@H](CC(N)=O)C(=O)N[C@@H](CO)C(=O)N1CCC[C@H]1C(=O)N1CCC[C@H]1C(=O)N[C@@H](CC(C)C)C(=O)N[C@@H](CCCCN)C(=O)N[C@@H](CCCCN)C(=O)O (H-TTLNSPPLKK-OH; N-terminus and C-terminus assumed) | 14.3
19 | CC(C)C[C@H](NC(=O)[C@H](CCC(N)=O)NC(=O)[C@H](CC(C)C)NC(=O)[C@@H](N)Cc1c[nH]cn1)C(=O)N[C@@H](CCCCN)C(=O)N[C@@H](CO)C(=O)N[C@@H](CS)C(=O)N[C@@H](CCCNC(=N)N)C(=O)N[C@@H](CCCNC(=N)N)C(=O)N[C@@H](CCCCN)C(=O)O (H-HLQLKSCRRK-OH; N-terminus and C-terminus assumed) | 96.9
20 | CC(C)C[C@H](N)C(=O)N[C@@H](Cc1ccccc1)C(=O)N[C@@H](Cc1ccccc1)C(=O)N[C@@H](Cc1ccccc1)C(=O)N[C@@H](Cc1ccccc1)C(=O)N[C@@H](Cc1ccccc1)C(=O)N[C@@H](CCC(=O)O)C(=O)N[C@H](C(=O)N[C@@H](CCCCN)C(=O)O)[C@@H](C)O (H-LFFFFFETK-OH; N-terminus and C-terminus assumed) | 413
21 | CC(C)[C@H](NC(=O)[C@@H](N)CCCNC(=N)N)C(=O)N[C@@H](CC(N)=O)C(=O)N[C@H](C(=O)N[C@@H](C)C(=O)N[C@@H](Cc1c[nH]c2ccccc12)C(=O)N[C@@H](CCCCN)C(=O)N[C@H](C(=O)N[C@@H](CCCCN)C(=O)O)[C@@H](C)O)[C@@H](C)O (H-RVNTAWKTK-OH; N-terminus and C-terminus assumed) | 8.6
22 | CC[C@H](C)[C@H](NC(=O)[C@H](C)N)C(=O)N[C@@H](CO)C(=O)N[C@H](C(=O)N[C@@H](CCCNC(=N)N)C(=O)N[C@@H](CC(=O)O)C(=O)N1CCC[C@H]1C(=O)N[C@@H](CC(C)C)C(=O)N[C@@H](CO)C(=O)N[C@@H](CCCCN)C(=O)O)[C@@H](C)O (H-AISTRDPLSK-OH; N-terminus and C-terminus assumed) | 57.5
23 | CC[C@H](C)[C@H](NC(=O)[C@H](Cc1c[nH]c2ccccc12)NC(=O)[C@H](CS)NC(=O)[C@H](Cc1ccccc1)NC(=O)[C@H](Cc1ccccc1)NC(=O)[C@@H](N)Cc1ccccc1)C(=O)N[C@@H](CC(C)C)C(=O)N[C@@H](CO)C(=O)N[C@@H](CS)C(=O)N[C@@H](CCCCN)C(=O)O (H-FFFCWILSCK-OH; N-terminus and C-terminus assumed) | 597
24 | CSCC[C@H](NC(=O)[C@@H](NC(=O)[C@H](Cc1ccccc1)NC(=O)[C@@H](N)CC(C)C)C(C)C)C(=O)N[C@@H](CO)C(=O)N[C@@H](CC(=O)O)C(=O)N[C@H](C(=O)N[C@H](C(=O)N[C@@H](Cc1ccc(O)cc1)C(=O)N[C@@H](CCCCN)C(=O)O)[C@@H](C)O)[C@@H](C)O (H-LFVMSDTTYK-OH; N-terminus and C-terminus assumed) | 749
25 | CC(C)C[C@H](NC(=O)[C@H](C)N)C(=O)N[C@@H](Cc1ccccc1)C(=O)N[C@@H](Cc1ccccc1)C(=O)N[C@@H](Cc1ccccc1)C(=O)N[C@@H](Cc1ccccc1)C(=O)N[C@@H](Cc1ccccc1)C(=O)N[C@@H](CCC(=O)O)C(=O)N[C@H](C(=O)N[C@@H](CCCCN)C(=O)O)[C@@H](C)O (H-ALFFFFFETK-OH; N-terminus and C-terminus assumed) | 216
26 | CC(C)C[C@H](NC(=O)[C@H](C)NC(=O)[C@@H]1CCCN1C(=O)[C@@H](NC(=O)[C@H](CCCCN)NC(=O)[C@H](CCCCN)NC(=O)[C@H](CC(C)C)NC(=O)[C@@H](N)CO)C(C)C)C(=O)N[C@@H](CCCCN)C(=O)N[C@@H](CCCCN)C(=O)O (H-SLKKVPALKK-OH; N-terminus and C-terminus assumed) | 9.6
